From patent EP4548971A1, “1,4-BENZOTHIAZEPINES AND RELATED COMPOUNDS WITH CYCLOPROPANOL GROUPS AS MULTI-TARGETED DRUGS” (Georg-August-Universität Göttingen Stiftung Öffentlichen …, priority 2023, dated 2025)

Key:
Format in all cases: cell-based
[1] = test system: saponin-permeabilized ventricular cardiomyocytes (sp-vCM) from RyR2R2474S/+ mice; assay: Ca2+ wave decay in saponin-permeabilized ventricular cardiomyocytes, RyR2R2474S/+ mice; conditions: 10 µM, result in words
Excerpt: (§1) • Figure 1: Synthesis scheme showing the synthesis of multifunctional compounds with cyclopropanol residues based on 1,4 -benzothiazepines. The respective reaction conditions (a) to (i) are as follows: (a) Jones reagent, aceton; (b) H2SO4, EtOH; (c) EtMgBr, Ti(OiPr)4, EtzO; (d) t-BuMe2SiOSO2CF3, 2,6-lutidine, DCM; (e) Hz, Pd/C, THF; (f) Dess-Martin reagent, DCM; (g) K2CO3, 1,4-dioxane; (h) N2H4*H2O, EtOH; (i) Na(CH3COO)3BH, 1,2-dichloroethane; (j) NaH, DMF; (k) aq. HF (55%), MeCN or 1 M n-Bu4NF in THF or KF, Et3N*HCl, MeOH. m,n = 2-8. • Figure 2: Synthesis scheme showing the synthesis of multifunctional compounds with cyclopropanol residues based on the "open" analogs 1,4 -benzothiazepines (i.e. 3-[(4-methoxyphenyl)oxy]-and 3-[(4-methoxyphenylthio)]propane-1-amine derivatives). […] Values represent the mean ± S.D., *** P < 0.0005, **** P < 0.0001 vs. DMSO by unpaired t test; n = 6 - 28. • Figure 6: Time-lapse fluorescence measurements using TECAN Spark 20M plate reader with HEK293 cells expressing WT RyR2 and R-CEPIA1er indicator. […] Fluorescence ratio F/F0, where F0 - average fluorescence signal for the first 90 seconds, F- average fluorescence signal for the last 100 s, was taken for the calculations. […] Data sets were analyzed by unpaired Student's t-test. n.s. non-significant with P=0.59 for Dan, **, P<0.01 with P=0.003 for S36, and *, P<0.05 with P=0.019 for GM1869; (D, E, F) Relative changes in the decay time tau of Ca2+ transients from spontaneous Ca2+ waves (in control/drug) by Dan (D, 10µM), S36 (E, 10 µM), and GM1869 (F, 10 µM) in cardiomyocytes from WT and RyR2R2474S/+ mice. […] Rise times represent the tau values calculated by a mono-exponential fit of the Ca2+ transients from start to the peak of the signal. Ca2+ transients were recorded in control conditions and every 2 min (S36) or 4 min (GM1869) after drug application. **, P = 0.0065 for S36; ****, P = 0.000019 for GM1869, evaluated by paired Student's t-test. […] Decay times represent the tau values calculated by a mono-exponential fit of the Ca2+ transients from half maximum to baseline of the signal. […]

[2] = test system: saponin-permeabilized ventricular cardiomyocytes (sp-vCM) from WT mice; assay: Ca2+ wave decay in saponin-permeabilized ventricular cardiomyocytes, WT mice; conditions: 10 µM, result in words
Excerpt: as §1

[3] = target: T1, WT RyR2 (Mus musculus, UniProt E9Q401); assay: Time-lapse [Ca2+]ER assay (RyR2 R-CEPIA1er assay) in HEK-293 cells; conditions: 25 µM, vs. 0.1 v/v% DMSO
T1 construct: expressed in transfected cells
T1 sequence (E9Q401 whole entry): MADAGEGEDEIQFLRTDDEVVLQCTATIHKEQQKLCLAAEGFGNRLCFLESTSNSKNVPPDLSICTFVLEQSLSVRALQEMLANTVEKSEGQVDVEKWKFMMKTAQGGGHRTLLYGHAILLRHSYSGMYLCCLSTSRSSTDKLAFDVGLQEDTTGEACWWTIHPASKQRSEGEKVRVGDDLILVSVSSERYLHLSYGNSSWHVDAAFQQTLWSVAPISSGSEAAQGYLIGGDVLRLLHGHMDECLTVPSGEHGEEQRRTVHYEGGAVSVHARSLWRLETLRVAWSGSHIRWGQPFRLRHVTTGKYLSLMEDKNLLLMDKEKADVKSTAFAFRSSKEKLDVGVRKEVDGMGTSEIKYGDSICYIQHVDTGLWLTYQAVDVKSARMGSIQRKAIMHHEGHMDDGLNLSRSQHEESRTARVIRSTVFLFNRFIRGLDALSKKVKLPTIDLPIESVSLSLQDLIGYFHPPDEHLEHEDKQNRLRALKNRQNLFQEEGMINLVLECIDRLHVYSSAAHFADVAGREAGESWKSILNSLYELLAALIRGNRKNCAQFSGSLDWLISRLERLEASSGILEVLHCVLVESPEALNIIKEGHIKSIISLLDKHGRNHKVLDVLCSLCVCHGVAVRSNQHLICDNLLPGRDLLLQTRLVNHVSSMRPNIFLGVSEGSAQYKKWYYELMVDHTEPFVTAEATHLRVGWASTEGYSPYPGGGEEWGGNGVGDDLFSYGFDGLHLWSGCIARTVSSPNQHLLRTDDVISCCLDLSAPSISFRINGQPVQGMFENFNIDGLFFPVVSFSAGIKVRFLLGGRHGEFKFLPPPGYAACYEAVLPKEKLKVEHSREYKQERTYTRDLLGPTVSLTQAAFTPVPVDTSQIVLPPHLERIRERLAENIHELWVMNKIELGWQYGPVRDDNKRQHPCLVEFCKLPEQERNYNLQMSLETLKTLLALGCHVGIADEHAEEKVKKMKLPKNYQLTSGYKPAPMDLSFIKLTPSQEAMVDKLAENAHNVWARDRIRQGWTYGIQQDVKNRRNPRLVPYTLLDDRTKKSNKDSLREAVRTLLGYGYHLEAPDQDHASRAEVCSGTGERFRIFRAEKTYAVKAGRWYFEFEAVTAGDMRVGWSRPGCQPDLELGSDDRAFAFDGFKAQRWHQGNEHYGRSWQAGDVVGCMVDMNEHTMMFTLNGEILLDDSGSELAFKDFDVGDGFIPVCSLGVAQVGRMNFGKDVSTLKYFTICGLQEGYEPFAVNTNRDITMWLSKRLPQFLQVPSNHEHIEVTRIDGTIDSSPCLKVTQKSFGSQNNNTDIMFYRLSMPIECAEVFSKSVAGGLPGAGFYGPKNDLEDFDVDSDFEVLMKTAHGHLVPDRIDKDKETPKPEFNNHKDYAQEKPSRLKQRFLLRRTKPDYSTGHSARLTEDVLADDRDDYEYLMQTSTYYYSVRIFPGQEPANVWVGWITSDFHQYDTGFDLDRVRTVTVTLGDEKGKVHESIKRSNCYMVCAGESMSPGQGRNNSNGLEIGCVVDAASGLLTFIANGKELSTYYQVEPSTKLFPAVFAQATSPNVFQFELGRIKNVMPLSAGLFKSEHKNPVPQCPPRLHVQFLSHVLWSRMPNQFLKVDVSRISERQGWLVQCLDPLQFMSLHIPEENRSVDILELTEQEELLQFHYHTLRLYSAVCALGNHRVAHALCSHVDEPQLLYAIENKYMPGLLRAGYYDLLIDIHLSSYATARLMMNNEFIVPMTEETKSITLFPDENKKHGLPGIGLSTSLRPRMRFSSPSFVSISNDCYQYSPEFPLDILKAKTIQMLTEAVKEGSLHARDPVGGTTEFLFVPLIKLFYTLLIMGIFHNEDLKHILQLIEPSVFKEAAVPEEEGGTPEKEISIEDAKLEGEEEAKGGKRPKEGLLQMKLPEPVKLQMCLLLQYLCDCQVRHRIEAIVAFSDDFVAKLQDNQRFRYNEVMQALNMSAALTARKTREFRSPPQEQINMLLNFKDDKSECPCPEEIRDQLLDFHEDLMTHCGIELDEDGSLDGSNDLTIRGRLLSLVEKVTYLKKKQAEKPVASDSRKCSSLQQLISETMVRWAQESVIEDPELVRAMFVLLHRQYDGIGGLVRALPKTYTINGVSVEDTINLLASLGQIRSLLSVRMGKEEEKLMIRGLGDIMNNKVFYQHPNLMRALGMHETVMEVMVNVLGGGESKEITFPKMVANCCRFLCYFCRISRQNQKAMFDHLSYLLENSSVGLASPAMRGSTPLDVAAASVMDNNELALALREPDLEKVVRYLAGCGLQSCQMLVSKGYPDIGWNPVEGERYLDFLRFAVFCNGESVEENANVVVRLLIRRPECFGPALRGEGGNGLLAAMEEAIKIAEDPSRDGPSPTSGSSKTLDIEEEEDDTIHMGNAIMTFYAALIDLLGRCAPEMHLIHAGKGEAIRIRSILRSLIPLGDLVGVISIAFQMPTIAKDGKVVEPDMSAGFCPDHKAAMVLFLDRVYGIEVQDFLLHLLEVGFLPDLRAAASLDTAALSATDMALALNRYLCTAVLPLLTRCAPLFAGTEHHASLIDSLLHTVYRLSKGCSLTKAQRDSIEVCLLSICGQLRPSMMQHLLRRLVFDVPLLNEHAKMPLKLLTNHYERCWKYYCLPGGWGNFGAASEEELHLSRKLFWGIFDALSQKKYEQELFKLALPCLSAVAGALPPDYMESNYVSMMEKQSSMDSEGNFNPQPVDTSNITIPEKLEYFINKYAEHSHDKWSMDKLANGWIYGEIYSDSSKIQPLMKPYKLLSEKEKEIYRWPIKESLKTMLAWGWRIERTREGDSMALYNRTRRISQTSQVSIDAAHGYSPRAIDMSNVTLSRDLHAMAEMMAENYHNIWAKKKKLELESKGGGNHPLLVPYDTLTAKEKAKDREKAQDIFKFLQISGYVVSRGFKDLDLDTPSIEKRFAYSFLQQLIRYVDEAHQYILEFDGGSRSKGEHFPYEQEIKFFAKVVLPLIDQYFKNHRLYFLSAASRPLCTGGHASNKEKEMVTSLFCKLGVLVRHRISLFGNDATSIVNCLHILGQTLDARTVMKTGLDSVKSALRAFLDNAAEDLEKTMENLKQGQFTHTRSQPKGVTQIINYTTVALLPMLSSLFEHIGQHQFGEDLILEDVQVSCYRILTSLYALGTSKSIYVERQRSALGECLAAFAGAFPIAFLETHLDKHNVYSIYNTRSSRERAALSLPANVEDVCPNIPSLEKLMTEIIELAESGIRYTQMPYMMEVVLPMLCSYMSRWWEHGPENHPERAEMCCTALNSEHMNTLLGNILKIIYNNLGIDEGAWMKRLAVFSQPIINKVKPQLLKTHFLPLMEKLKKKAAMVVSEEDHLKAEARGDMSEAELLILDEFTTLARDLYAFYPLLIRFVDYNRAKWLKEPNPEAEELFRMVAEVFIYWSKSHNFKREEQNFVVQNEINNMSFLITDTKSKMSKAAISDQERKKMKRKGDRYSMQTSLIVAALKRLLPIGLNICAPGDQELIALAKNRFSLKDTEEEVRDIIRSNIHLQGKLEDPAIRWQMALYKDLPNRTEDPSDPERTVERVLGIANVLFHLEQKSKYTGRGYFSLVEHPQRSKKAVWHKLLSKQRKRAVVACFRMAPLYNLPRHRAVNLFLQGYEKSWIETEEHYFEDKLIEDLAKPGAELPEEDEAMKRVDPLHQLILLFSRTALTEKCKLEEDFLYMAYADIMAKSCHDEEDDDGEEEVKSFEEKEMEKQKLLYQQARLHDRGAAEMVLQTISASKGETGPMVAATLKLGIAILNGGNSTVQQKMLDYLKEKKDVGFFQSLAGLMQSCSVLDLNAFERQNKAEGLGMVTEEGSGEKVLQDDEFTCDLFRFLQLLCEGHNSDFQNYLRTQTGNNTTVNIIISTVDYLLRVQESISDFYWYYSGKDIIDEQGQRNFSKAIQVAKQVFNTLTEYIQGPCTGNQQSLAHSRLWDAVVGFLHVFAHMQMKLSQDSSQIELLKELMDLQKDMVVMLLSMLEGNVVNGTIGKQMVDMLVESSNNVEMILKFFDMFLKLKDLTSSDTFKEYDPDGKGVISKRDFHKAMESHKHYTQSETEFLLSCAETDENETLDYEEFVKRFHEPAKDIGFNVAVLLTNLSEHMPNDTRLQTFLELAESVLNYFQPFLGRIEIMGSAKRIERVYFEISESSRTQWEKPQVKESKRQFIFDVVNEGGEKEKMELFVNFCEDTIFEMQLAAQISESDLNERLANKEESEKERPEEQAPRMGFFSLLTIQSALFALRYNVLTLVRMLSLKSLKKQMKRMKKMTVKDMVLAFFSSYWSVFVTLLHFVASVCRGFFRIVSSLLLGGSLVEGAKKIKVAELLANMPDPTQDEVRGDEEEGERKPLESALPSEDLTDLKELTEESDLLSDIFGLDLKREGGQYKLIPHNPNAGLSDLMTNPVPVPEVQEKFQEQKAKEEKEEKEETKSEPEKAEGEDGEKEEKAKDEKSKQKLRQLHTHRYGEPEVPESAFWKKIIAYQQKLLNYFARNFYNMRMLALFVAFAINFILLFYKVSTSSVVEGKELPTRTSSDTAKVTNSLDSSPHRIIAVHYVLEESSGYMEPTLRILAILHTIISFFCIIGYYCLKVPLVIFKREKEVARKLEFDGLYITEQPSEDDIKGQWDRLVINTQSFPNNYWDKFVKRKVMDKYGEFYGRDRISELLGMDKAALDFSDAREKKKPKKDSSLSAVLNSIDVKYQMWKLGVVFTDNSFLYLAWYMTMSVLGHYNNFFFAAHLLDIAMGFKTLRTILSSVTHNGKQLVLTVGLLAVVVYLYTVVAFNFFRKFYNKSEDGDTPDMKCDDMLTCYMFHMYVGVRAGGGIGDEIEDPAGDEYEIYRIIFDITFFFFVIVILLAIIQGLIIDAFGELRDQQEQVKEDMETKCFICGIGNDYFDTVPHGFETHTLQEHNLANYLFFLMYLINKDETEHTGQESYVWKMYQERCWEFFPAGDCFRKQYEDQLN
Description: HEK-293 cells stably expressing R-CEPIA1er and WT RyR2 (generous gift from Takashi Murayama, Juntendo University School of Medicine, Tokyo) were cultured in Dulbecco's Modified Eagle medium (DMEM, Thermo Fisher Scientific, Darmstadt, Germany) supplemented with 10% fetal bovine serum (FBS, Thermo Fisher Scientific, Darmstadt, Germany), 0.9% Penicillin/Streptomycin (Merck KGaA, Darmstadt, Germany), 15ug/mL Blasticidine (Invivogen, Toulouse, France), 100 µg/mL Hygromycin (Merck KGaA, Darmstadt, Germany) and 400 µg/mL G418 (Thermo Fisher Scientific, Darmstadt, Germany) in a humidified 5% COz incubator at 37 °C. To induce the expression of WT RyR2 in the endoplasmic reticulum (ER), 2 µg/mL Doxycycline (Merck KGaA, Darmstadt, Germany) was added 24 h before experiments.
The fluorescent plate reader [Ca^2+]ER assay was performed according to the slightly modified protocol of Murayama & Kurebayashi [T. Murayama, N. Kurebayashi, Assays for Modulators of Ryanodine Receptor (RyR)/Ca(2+) Release Channel Activity for Drug Discovery for Skeletal Muscle and Heart Diseases. Curr. Protoc. […] After the cells were inducted with Doxycycline for 24 h, changes in ER calcium concentrations [Ca^2+]ER were measured on a multiwell plate reader TECAN Spark 20M at 37 °C. The 1000 × stock solutions of the test compounds were prepared in DMSO. Briefly, the culture medium was removed and 100 µl of Tyrode's solution containing 2 mM CaCl2 was added to the cells. The time courses were recorded in each well. Fluorescence was evoked by 560 nm excitation wavelength and collected in a bottom-read mode at 610 nm. Data was recorded every 10 s, exposure - 20 flashes, excitation bandwidth - 20 nm, emission bandwidth - 20 nm. 100 µl of 0 - 100 µM solution of test compound in Tyrode's solution containing 2 mM CaCh was injected in each well (speed 100 µl/s) at the 90 s time point. […] The 0.1 v/v% DMSO and 2 mM CaCh Tyrode's solution was used as a control.
The dose response curves were calculated using the software package GraphPad Prism version 8.3.1. (GraphPad Software, Inc.). All data are presented as mean ± S.D. in 3 independent experiments. Y=Bottom + (Top-Bottom)/(1+10^((LogEC50-X)*HillSlope)) was used where HillSlope describes the steepness of the curve, Top and Bottom are plateaus in the units of the Y axis.
The inventors measured changes in Ca^2+ levels in the endoplasmic reticulum (ER) of HEK-293 cells with inducible expression of wild-type RyR2 (WT RyR2) [T. Murayama, N. Kurebayashi, M. Ishigami-Yuasa, S. Mori, Y. Suzuki, R. Akima, H. Ogawa, J. Suzuki, K. Kanemaru, H. Oyamada, Y. Kiuchi, M. Iino, H. Kagechika, T. Sakurai, Efficient High-Throughput Screening by Endoplasmic Reticulum Ca(2+) Measurement to Identify Inhibitors of Ryanodine Receptor Ca(2+)-Release Channels. […] The cells additionally stably express the Ca^2+ fluorescence indicator R-CEPIA1er, which is a genetically encoded sensor protein of Ca^2+ in the ER ([Ca^2+]ER) [T. Murayama, N. Kurebayashi, Assays for Modulators of Ryanodine Receptor (RyR)/Ca(2+) Release Channel Activity for Drug Discovery for Skeletal Muscle and Heart Diseases. Curr. Protoc.
The fluorescence ratio F/F0 was calculated, where F0 - is the average fluorescence for the first 90 s, F - is the average fluorescence for the last 100 s, and normalized.

Question: What does the source list for `O=C1CN(/N=C/c2ccc(-c3ccc([N+](=O)[O-])cc3)o2)C(O)=N1` [dantrolene]?
Answer: Relative changes in the decay time tau of Ca2+ transients from spontaneous Ca2+ waves (in control/drug) [1]: significantly above 1; Relative changes in the decay time tau of Ca2+ transients from spontaneous Ca2+ waves (in control/drug) [2]: significantly above 1; effect on [Ca^2+]ER (R-CEPIA1er fluorescence), in words [3]: increase in R-CEPIA1er fluorescence
